The record followed here is PMC12146557 (iScience, 2025).

The target of one assay is T1, HsUbc13 (human Ubc13) (Homo sapiens, UniProt P61088).
T1 sequence (P61088 1-152): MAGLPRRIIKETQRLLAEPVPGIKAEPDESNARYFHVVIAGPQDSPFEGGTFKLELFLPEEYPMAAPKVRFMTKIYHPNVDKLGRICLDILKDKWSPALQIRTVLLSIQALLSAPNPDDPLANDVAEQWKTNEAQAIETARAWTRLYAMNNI
Nature of the assay: LC-HRMS of tryptic peptides. The format is biochemical.

Assay [1] has as its target T2, PfUbc13 (Plasmodium falciparum ubiquitin-conjugating enzyme 13) (Plasmodium falciparum, UniProt Q8I3J4).
T2 sequence (Q8I3J4 1-152): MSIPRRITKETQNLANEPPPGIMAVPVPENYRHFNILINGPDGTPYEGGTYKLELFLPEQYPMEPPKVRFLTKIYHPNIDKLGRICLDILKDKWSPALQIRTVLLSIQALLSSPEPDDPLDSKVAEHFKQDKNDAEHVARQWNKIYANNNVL
T2 sequence (Q8I5F9 1-1140 partner): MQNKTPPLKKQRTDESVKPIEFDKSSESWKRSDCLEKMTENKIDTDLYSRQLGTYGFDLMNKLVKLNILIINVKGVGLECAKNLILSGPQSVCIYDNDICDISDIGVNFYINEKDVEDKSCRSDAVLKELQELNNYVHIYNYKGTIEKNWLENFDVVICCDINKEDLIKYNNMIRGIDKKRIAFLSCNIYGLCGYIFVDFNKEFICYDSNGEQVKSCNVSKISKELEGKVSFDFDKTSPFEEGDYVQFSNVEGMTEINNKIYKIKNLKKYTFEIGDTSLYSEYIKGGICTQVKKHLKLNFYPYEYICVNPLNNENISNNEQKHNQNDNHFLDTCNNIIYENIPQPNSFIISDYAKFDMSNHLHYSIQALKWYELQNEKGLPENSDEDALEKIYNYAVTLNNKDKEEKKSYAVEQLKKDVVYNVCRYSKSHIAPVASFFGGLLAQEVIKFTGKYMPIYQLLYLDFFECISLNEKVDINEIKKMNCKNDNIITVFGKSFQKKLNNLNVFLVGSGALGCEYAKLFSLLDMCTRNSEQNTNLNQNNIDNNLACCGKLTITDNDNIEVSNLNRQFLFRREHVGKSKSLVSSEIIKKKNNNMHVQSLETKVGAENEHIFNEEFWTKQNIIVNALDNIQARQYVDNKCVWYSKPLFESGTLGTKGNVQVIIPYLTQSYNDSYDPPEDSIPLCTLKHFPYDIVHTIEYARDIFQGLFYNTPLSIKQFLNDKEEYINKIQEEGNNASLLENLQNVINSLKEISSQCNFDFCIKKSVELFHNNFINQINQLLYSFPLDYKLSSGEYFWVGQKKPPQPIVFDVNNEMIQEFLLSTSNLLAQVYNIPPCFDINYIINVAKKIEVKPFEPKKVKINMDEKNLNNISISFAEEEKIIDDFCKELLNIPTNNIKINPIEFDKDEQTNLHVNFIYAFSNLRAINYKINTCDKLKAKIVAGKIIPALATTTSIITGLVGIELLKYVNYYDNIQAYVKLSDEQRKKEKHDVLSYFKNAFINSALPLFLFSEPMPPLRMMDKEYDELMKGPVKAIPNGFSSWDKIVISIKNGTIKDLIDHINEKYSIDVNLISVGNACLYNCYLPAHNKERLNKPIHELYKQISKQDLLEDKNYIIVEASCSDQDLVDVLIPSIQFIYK
Nature of the assay: LC-HRMS of tryptic peptides. The class given is biochemical.

`Cc1ccc(S(=O)(=O)c2ccc([N+](=O)[O-])o2)cc1` [NSC697923]: the inhibition constant (Ki) at HsUbc13 (human Ubc13) is 280 ± 70 nM; in assay [1], 360 ± 110 nM.

The term Ki denotes the equilibrium dissociation constant of an inhibitor or competing ligand from its target. A high value points to weaker binding.
